Laboratory results taken from PubChem BioAssay AID2202554 (NIEHS Division of Translational Toxicology (DTT)).
Inconclusive results are not listed. Activity calls are given as the source filed them. No rule for the calls is given here.

The molecules below were run on S. typhimurium/E. coli reverse mutation, colony counts (assay: Bacterial reverse mutation test (aka Ames test) summary data;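 also: His-minus Salmonella and trp-minus E. coli WP2 uvrA pKM101 with or without liver S9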).
Text: The Ames test uses bacteria cultures to determine whether a substance causes mutations. Because there is a significant overlap between substances that are mutagens and those that are carcinogens, a quick and inexpensive mutagenicity test is useful as an initial screening for possible carcinogens.
The Ames test relies on specific strains of S. typhimurium, namely: TA97, TA98, TA100, TA102, TA104, TA1535, TA1537, and TA1538. In addition to the S. typhimurium strains, the test may also use the E. coli strain WP2 uvrA pKM101.
Each of the bacterial strains has a mutation that prevents it from making an amino acid (a protein building block) required for normal cell growth. The S. typhimurium strains are unable to manufacture histidine; the E. coli strain cannot manufacture tryptophan. The tester strains will not be able to grow without amino acid supplementation, unless the mutated gene is changed back to the correct DNA sequence (reversion mutation). Being exposed to a mutagenic chemical increases the chance that the mutant gene will be restored to the correct sequence, which allows the bacteria to grow and form colonies. Each substance under study is tested in a variety of bacterial strains with different types of altered DNA sequences in order to provide a comprehensive assessment of the mutagenic potential of the substance.
Some non-mutagenic substances are converted to mutagenic substances when metabolized by the liver; in contrast, some substances that are mutagenic in their natural state are converted to non-mutagens by the liver. All substances are tested in their natural state, as well as in the presence of liver enzymes that can produce this metabolic conversion of the test substance. Extracts of rat, hamster, or mouse liver enzymes (S9 mix) are used for this purpose.
D. Preparing the Cultures
Multiple sets of cultures are prepared using a range of doses and different amounts of liver enzymes for each bacterial strain. Each culture is prepared in a test tube containing a suspension of one bacterial strain and either an S9 mix or plain buffer solution. Then the test substance is added. Negative control cultures are established using the same ingredients, but without the test substance. Positive control cultures are established using known mutagens active in particular bacterial strains and metabolic conditions (for example, with or without S9). Once prepared, each culture is incubated for 20 minutes at 37° C. Agar is then added to the cultures, and the contents of each tube are poured onto the surface of a Petri dish that was prepared with standard bacterial culture medium. The plates are then incubated, usually for two days.
Depending on the substance to be tested, the exposure and incubation processes may be modified. These variations include:
- Elimination of the 20-minute incubation period in a test tube prior to plating (this method is referred to as the standard plate incorporation method)
- Enzymatic reduction of azo and diazo substances (this process occurs in the intestine or liver of animals) using a chemical called flavin mononucleotide (FMN) or intestinal bacterial preparations from rats
- Testing in sealed chambers such as desiccators for volatile and gaseous chemicals.
To validate the test, a trained investigator compares the number of colonies on the chemical-treated plates to the number of colonies on the negative control plates. If the substance under test is mutagenic, the chemical-treated plates will have a much greater number of colonies than the negative control plates.
- A positive response is a reproducible, dose-related increase in mutant colonies in any single strain, with or without the addition of S9 metabolic enzymes. While there is no minimum percentage of increase required for a result to be considered positive, a twofold increase in mutant colonies in a treated plate is usually considered to be a positive (mutagenic) response.
[…]
In the case of `CC(CCN(C)C)N(C)C` (stereo not drawn), the outcome is reported as “inactive; negative”. `OCC(Br)CBr` (stereo not drawn) was tested, and the outcome was “active; positive”. For `Oc1ccccc1Cl`, the outcome was “inactive; negative”. With `OCc1c[nH]c2ccccc12` the outcome was “active; positive”. For `[Cl][In]([Cl])[Cl]`, the outcome was “inactive; negative”. In the case of `Nc1nc2ccc([N+](=O)[O-])cc2s1`, the outcome is reported as “active; positive”. In the case of `[Cl-].[Cl-].[Hg+2]`, the outcome is reported as “inactive; negative”. In the case of `CNNCc1ccc(C(=O)NC(C)C)cc1`, the outcome is reported as “inactive; negative”. `O.O.O.O.O.O.O.O=S(=O)([O-])[O-].[Co+2]` was tested, and the outcome was “active; weakly positive”. In the case of `N#CCO`, the outcome is reported as “inactive; negative”. In the case of `CC(CCl)OP(=O)(OC(C)CCl)OC(C)CCl` (stereo not drawn), the outcome is reported as “inactive; negative”. With `Cc1ccc(S(N)(=O)=O)cc1` the outcome was “inactive; negative”. For `[O-]/[N+](=N\O)c1ccccc1`, the outcome was “active; positive”. With `Nc1ccccc1C(=O)OCC=Cc1ccccc1` the outcome was “inactive; negative”. With `CCC(C)=O` the outcome was “inactive; negative”. In the case of `Oc1ccccc1`, the outcome is reported as “inactive; negative”. In the case of `C=C(C)C(=O)OCCCCCCCCCC`, the outcome is reported as “inactive; negative”. In the case of `NCCNCCNCCN`, the outcome is reported as “active; positive”. For `Cl/C=C\Cl`, the outcome was “inactive; negative”. For `O=C(O)C(Cl)(Br)Br`, the outcome was “active; positive”. With `CC(C)Br` the outcome was “active; positive”. With `CC(Cl)(Cl)[N+](=O)[O-]` the outcome was “active; positive”. For `ClC1C(Cl)C(Cl)C(Cl)C(Cl)C1Cl` (stereo not drawn), the outcome was “inactive; negative”. In the case of `OC(CCl)CCl`, the outcome is reported as “active; positive”. For `CN(C)C(=S)N(C)C`, the outcome was “inactive; negative”. `O=[N+]([O-])c1cccc(Cl)c1Cl` was tested, and the outcome was “active; weakly positive”. With `Oc1cccc(O)c1O` the outcome was “active; positive”. `NC1CCCCC1` was tested, and the outcome was “inactive; negative”. In the case of `NC(=O)Nc1nc2ccccc2[nH]1`, the outcome is reported as “active; positive”. `CC(O)CO` (stereo not drawn) was tested, and the outcome was “inactive; negative”. For `COc1cc([C@H]2Oc3cc([C@H]4Oc5cc(O)cc(O)c5C(=O)[C@@H]4O)ccc3O[C@@H]2CO)ccc1O`, the outcome was “inactive; negative”. With `CCCN(CCC)C(=O)CN` the outcome was “active; positive”. `COC(=O)c1ccccc1O` was tested, and the outcome was “active; weakly positive”. In the case of `Clc1ccccc1`, the outcome is reported as “inactive; negative”. With `CC(C)[N+](C)(CCOC(=O)C1c2ccccc2Oc2ccccc21)C(C)C` the outcome was “inactive; negative”. With `c1ccc(Nc2ccc(Nc3ccccc3)cc2)cc1` the outcome was “active; positive”. For `CCCCOC(=O)c1ccccc1N`, the outcome was “inactive; negative”. `O=C(/C=C/C=C/c1ccc2c(c1)OCO2)N1CCCCC1` was tested, and the outcome was “inactive; negative”. For `C=C(Cl)Cl`, the outcome was “inactive; negative”. With `NCCC(=O)O` the outcome was “inactive; negative”. For `O=C(OOC(=O)c1ccccc1)c1ccccc1`, the outcome was “inactive; negative”. `CCOc1ccc(N)cc1` was tested, and the outcome was “active; positive”. In the case of `Nc1ccc(Nc2ccccc2)cc1`, the outcome is reported as “inactive; negative”. For `ON=C1CCCCC1`, the outcome was “active; positive”. `COP(=S)(OC)SCn1nnc2ccccc2c1=O` was tested, and the outcome was “active; positive”. In the case of `C=CC(=O)OCCOCCOC(=O)C=C`, the outcome is reported as “inactive; negative”. With `Oc1ccccc1O` the outcome was “inactive; negative”. For `COc1cc(CNC(=O)CCCC/C=C/C(C)C)ccc1O`, the outcome was “inactive; negative”. `Nc1ccc(Sc2ccc(N)cc2)cc1` was tested, and the outcome was “active; positive”. In the case of `NC1NC=CS1` (stereo not drawn), the outcome is reported as “active; positive”. For `CC(=O)OCc1ccco1`, the outcome was “active; positive”. With `O=C(O)c1ccccc1Cl` the outcome was “inactive; negative”. With `Oc1ccc2cc(SSc3ccc4cc(O)ccc4c3)ccc2c1` the outcome was “inactive; negative”. `O.O.O.O.O.O.O=[N+]([O-])[O-].O=[N+]([O-])[O-].O=[N+]([O-])[O-].[La+3]` was tested, and the outcome was “inactive; negative”. With `Cc1cc(O)c(C(C)(C)C)cc1Sc1cc(C(C)(C)C)c(O)cc1C` the outcome was “inactive; negative”. In the case of `C[N+](C)(C)CCCl`, the outcome is reported as “inactive; negative”. With `CN(C)c1ccc(C(=O)c2ccc(N(C)C)cc2)cc1` the outcome was “active; positive”. With `Nc1cc([N+](=O)[O-])ccc1C(=O)O` the outcome was “active; positive”. With `Nc1cc(S(=O)(=O)O)cc2cc(S(=O)(=O)O)c(N=Nc3ccc(-c4ccc(N=Nc5c(S(=O)(=O)O)cc6cc(S(=O)(=O)O)cc(N)c6c5O)cc4)cc3)c(O)c12` the outcome was “inactive; negative”. With `N#C/C(N)=C(/N)C#N` the outcome was “inactive; negative”. For `c1ccc(COCc2ccccc2)cc1`, the outcome was “inactive; negative”. `[Cl-].[Cl-].[Sn+2]` was tested, and the outcome was “inactive; negative”. In the case of `CC(O)CN(C)C` (stereo not drawn), the outcome is reported as “inactive; negative”. `O=c1c2ccccc2c(=O)c2c1ccc1c2[nH]c2c3c(=O)c4ccccc4c(=O)c3c3[nH]c4c(ccc5c(=O)c6ccccc6c(=O)c54)c3c12` was tested, and the outcome was “inactive; negative”. For `O=C(O)c1c(Cl)cccc1Cl`, the outcome was “inactive; negative”. For `CCCCCc1cc(O)cc(O)c1`, the outcome was “inactive; negative”. With `CC(=O)OC/C=C(\C)CCC=C(C)C` the outcome was “inactive; negative”. `Sc1ccccc1` was tested, and the outcome was “inactive; negative”. With `CCCCOc1ccc(C=Nc2ccc(CC)cc2)cc1` the outcome was “active; weakly positive”. In the case of `CC(C)(C)OCC1CO1` (stereo not drawn), the outcome is reported as “active; positive”. For `c1ccc(Oc2ccccc2)cc1`, the outcome was “inactive; negative”. With `Clc1cc(Cl)c(Cl)c(Cl)c1` the outcome was “inactive; negative”. For `ClNc1nc(NCl)nc(NCl)n1`, the outcome was “inactive; negative”. With `CN(C)CCN(Cc1cccs1)c1ccccn1` the outcome was “inactive; negative”. With `COCCOC(C)=O` the outcome was “active; weakly positive”. For `O=C(O)C=Cc1ccc(O)c(O)c1`, the outcome was “inactive; negative”. In the case of `Cc1ccc(N)cc1C`, the outcome is reported as “active; positive”. `CN(C)CCN(Cc1ccsc1)c1ccccn1` was tested, and the outcome was “inactive; negative”. For `CCC(C)O` (stereo not drawn), the outcome was “inactive; negative”. `CN(C)N=Nc1nc[nH]c1C(N)=O` was tested, and the outcome was “active; positive”. `Cc1ccc(N=Nc2c(O)ccc3ccccc23)c([N+](=O)[O-])c1` was tested, and the outcome was “active; positive”. In the case of `CCOP(=S)(OCC)SC1OCCOC1SP(=S)(OCC)OCC` (stereo not drawn), the outcome is reported as “active; positive”. `CCCCCCCCCCCCCC(=O)[O-].CCCCCCCCCCCCCC(=O)[O-].[Zn+2]` was tested, and the outcome was “inactive; negative”. In the case of `C=C(C)C(=O)OCC(Br)CBr` (stereo not drawn), the outcome is reported as “active; positive”. `c1cc2c3c(c1)ccc1cccc(c13)C2` was tested, and the outcome was “active; positive”. `CO/N=C(\C(=O)N[C@@H]1C(=O)N2C(C(=O)O)=C(COC(N)=O)CS[C@H]12)c1ccco1` was tested, and the outcome was “inactive; negative”. In the case of `CC1=CC(C)(C)Nc2ccccc21`, the outcome is reported as “inactive; negative”. With `Nc1ncn[nH]1` the outcome was “inactive; negative”. In the case of `O=C(Cl)c1ccccc1F`, the outcome is reported as “active; positive”. In the case of `C=CC(C)(O)CCC=C(C)C` (stereo not drawn), the outcome is reported as “inactive; negative”. For `CC(=O)CC(=O)N(C)C`, the outcome was “inactive; negative”. With `NCC(=O)O` the outcome was “inactive; negative”. For `S=c1[nH][nH]c(=S)s1`, the outcome was “inactive; negative”. `C=CCOC(=O)COCCC(C)C` was tested, and the outcome was “inactive; negative”. With `NCCCCCCCCCCC(=O)O` the outcome was “inactive; negative”. With `Cc1ccc(C)cc1` the outcome was “inactive; negative”. With `Nc1nc(N)c2nc(-c3ccccc3)c(N)nc2n1` the outcome was “inactive; negative”. In the case of `C=C(C)CCl`, the outcome is reported as “active; weakly positive”.
